Data taken from publication PMC9090415, “Discovery of small molecule inhibitors of Plasmodium falciparum apicoplast DNA polymerase” (Journal of Enzyme Inhibition and Medicinal Chemistry, 2022).

Target: P. falciparum apicoplast DNA polymerase (Pf-apPOL) (Plasmodium falciparum, UniProt Q8ILY1)
Assay: Fluorescence-based high-throughput DNA polymerase assay (molecular beacon), primary screen and dose-response;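 on % inhibition ApPOL 90': test concentration in µM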;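 on % inhibition apPOL 180': test concentration in µM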
Format: biochemical
Summary of the method: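 Single-point screening used 10 µM compound with 20 nM polymerase, 20 nM hairpin substrate and 6 µM dNTPs for 90 min at 25 °C. Confirmatory titrations (2.5–80 µM) followed fluorescence at three times, and IC50 was derived from a fit including a cooperativity term n.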

[1] = supplemental file 2, sheet IC50 nontoxic compounds; Pf-apPOL

Sequence of P. falciparum apicoplast DNA polymerase (Pf-apPOL) (Q8ILY1 entry or part of it): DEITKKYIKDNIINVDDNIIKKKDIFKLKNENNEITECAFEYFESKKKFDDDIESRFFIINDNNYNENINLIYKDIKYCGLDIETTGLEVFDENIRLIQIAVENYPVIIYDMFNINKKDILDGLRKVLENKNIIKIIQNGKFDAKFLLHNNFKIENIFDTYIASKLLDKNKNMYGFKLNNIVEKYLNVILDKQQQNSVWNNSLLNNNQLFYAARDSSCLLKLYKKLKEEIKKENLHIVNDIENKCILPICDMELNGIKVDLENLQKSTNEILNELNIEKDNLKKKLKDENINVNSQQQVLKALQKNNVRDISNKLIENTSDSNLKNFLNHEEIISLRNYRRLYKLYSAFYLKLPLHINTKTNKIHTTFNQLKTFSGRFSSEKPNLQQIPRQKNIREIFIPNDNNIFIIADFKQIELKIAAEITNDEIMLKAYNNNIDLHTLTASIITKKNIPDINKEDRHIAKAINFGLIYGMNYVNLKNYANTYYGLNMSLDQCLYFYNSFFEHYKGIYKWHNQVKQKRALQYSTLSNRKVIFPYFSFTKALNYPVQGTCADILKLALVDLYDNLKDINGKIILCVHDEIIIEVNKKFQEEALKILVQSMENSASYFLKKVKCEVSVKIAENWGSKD

SMILES: Cc1ccc(CNC(=O)c2cnn3c(O)cc(CSc4ccc(Cl)cc4)nc23)cc1 [Molecule 99, Cc1ccc(cc1)CNC(=O)c1cnn2c1nc(CSc1ccc(cc1)Cl)cc2O]
- DNA Pol ('DNA Pol' of the 186 hits list (screen value); 90 min, 10 µM): 67
- % inhibition Apo pol 10' (DRC-1; 10'; conc 2.5): 17.7402%
- % inhibition Apo pol 10' (DRC-1; 10'; conc 5): 14.3%
- % inhibition Apo pol 10' (DRC-1; 10'; conc 10): 59.9515%
- % inhibition Apo pol 10' (DRC-1; 10'; conc 20): 87.9776%
- % inhibition Apo pol 10' (DRC-1; 10'; conc 40): 95.4401%
- % inhibition Apo pol 10' (DRC-1; 10'; conc 80): 98.3006%
- % inhibition Apol 90' (DRC-1; 90'; conc 2.5): 16.0319%
- % inhibition Apol 90' (DRC-1; 90'; conc 5): 10.3916%
- % inhibition Apol 90' (DRC-1; 90'; conc 10): 57.1077%
- % inhibition Apol 90' (DRC-1; 90'; conc 20): 85.3091%
- % inhibition Apol 90' (DRC-1; 90'; conc 40): 92.0772%
- % inhibition Apol 90' (DRC-1; 90'; conc 80): 96.0616%
- % inhibition apPOL 180' (DRC-1; 180'; conc 2.5): 7.151%
- % inhibition apPOL 180' (DRC-1; 180'; conc 5): 1.596%
- % inhibition apPOL 180' (DRC-1; 180'; conc 10): 45.1863%
- % inhibition apPOL 180' (DRC-1; 180'; conc 20): 80.2247%
- % inhibition apPOL 180' (DRC-1; 180'; conc 40): 89.0926%
- % inhibition apPOL 180' (DRC-1; 180'; conc 80): 94.6304%
- % inhibition Apo pol 5' (DRC-2; 5'; conc 2.5): 29%
- % inhibition Apo pol 5' (DRC-2; 5'; conc 5): 42%
- % inhibition Apo pol 5' (DRC-2; 5'; conc 10): 44%
- % inhibition Apo pol 5' (DRC-2; 5'; conc 20): 58%
- % inhibition Apo pol 5' (DRC-2; 5'; conc 40): 67%
- % inhibition Apo pol 5' (DRC-2; 5'; conc 80): 68%
- % inhibition Apo pol 5' (DRC-2; 5'; concentration 80): 68%
- % inhibition Apol 40' (DRC-2; 40'; conc 2.5): 32%
- % inhibition Apol 40' (DRC-2; 40'; conc 5): 49%
- % inhibition Apol 40' (DRC-2; 40'; conc 10): 50%
- % inhibition Apol 40' (DRC-2; 40'; conc 20): 68%
- % inhibition Apol 40' (DRC-2; 40'; conc 40): 78%
- % inhibition Apol 40' (DRC-2; 40'; conc 80): 81%
- % inhibition Apol 40' (DRC-2; 40'; concentration 5): 49%
- % inhibition Apol 40' (DRC-2; 40'; concentration 20): 68%
- % inhibition ApPOL 90' (DRC-2; 90'; conc 2.5): 31%
- % inhibition ApPOL 90' (DRC-2; 90'; conc 5): 49%
- % inhibition ApPOL 90' (DRC-2; 90'; conc 10): 49%
- % inhibition ApPOL 90' (DRC-2; 90'; conc 20): 69%
- % inhibition ApPOL 90' (DRC-2; 90'; conc 40): 80%
- % inhibition ApPOL 90' (DRC-2; 90'; conc 80): 84%
- % inhibition ApPOL 90' (DRC-2; 90'; concentration 5): 49%
- % inhibition ApPOL 90' (DRC-2; 90'; concentration 10): 49%
- % inhibition ApPOL 90' (DRC-2; 90'; concentration 40): 80%
- % inhibition apPOL 180' (DRC-2; 180'; conc 2.5): 25%
- % inhibition apPOL 180' (DRC-2; 180'; conc 5): 40%
- % inhibition apPOL 180' (DRC-2; 180'; conc 10): 41%
- % inhibition apPOL 180' (DRC-2; 180'; conc 20): 66%
- % inhibition apPOL 180' (DRC-2; 180'; conc 40): 80%
- % inhibition apPOL 180' (DRC-2; 180'; conc 80): 86%
- % inhibition apPOL 180' (DRC-2; 180'; concentration 40): 80%
- DNA Pol (primary screen value, "DNA Pol"; 90 min, 10 µM): 67

SMILES: O=C(Cn1ccc2c(=O)[nH]ccc21)Nc1cccc(Cl)c1 [Molecule 23]
- IC50 [1]: 9.11 µM

SMILES: Cc1cc(C)c2c(c1)C1C=CCC1C(c1ccc(C(=O)O)cc1)N2 (stereo not drawn) [Molecule 102]
- IC50 [1]: 2.89 µM

SMILES: O=C(NNC(=O)C(F)(F)Sc1ccccc1)c1ccsc1 [Molecule 68, O=C(C(Sc1ccccc1)(F)F)NNC(=O)c1cscc1]
- DNA Pol ('DNA Pol'; screening value, unit not given; 90 min, 10 µM): 82
- % inhibition Apo pol 10' (DRC-1; 10'; concentration 2.5): 18.9007%
- % inhibition Apo pol 10' (DRC-1; 10'; concentration 5): 22.6096%
- % inhibition Apo pol 10' (DRC-1; 10'; concentration 10): 35.002%
- % inhibition Apo pol 10' (DRC-1; 10'; concentration 20): 47.6682%
- % inhibition Apo pol 10' (DRC-1; 10'; concentration 40): 67.1681%
- % inhibition Apo pol 10' (DRC-1; 10'; concentration 80): 81.7014%
- % inhibition Apol 90' (DRC-1; 90'; concentration 2.5): -2.054%
- % inhibition Apol 90' (DRC-1; 90'; concentration 5): 4.132%
- % inhibition Apol 90' (DRC-1; 90'; concentration 10): 13.2706%
- % inhibition Apol 90' (DRC-1; 90'; concentration 20): 25.6835%
- % inhibition Apol 90' (DRC-1; 90'; concentration 40): 44.8257%
- % inhibition Apol 90' (DRC-1; 90'; concentration 80): 64.9924%
- % inhibition apPOL 180' (DRC-1; 180'; concentration 2.5): -9.701%
- % inhibition apPOL 180' (DRC-1; 180'; concentration 5): -6.4745%
- % inhibition apPOL 180' (DRC-1; 180'; concentration 10): 2.016%
- % inhibition apPOL 180' (DRC-1; 180'; concentration 20): 13.4425%
- % inhibition apPOL 180' (DRC-1; 180'; concentration 40): 32.4259%
- % inhibition apPOL 180' (DRC-1; 180'; concentration 80): 53.4351%
- % inhibition Apo pol 5' (DRC-2, 5', concentration 2.5): 9%
- % inhibition Apo pol 5' (DRC-2, 5', concentration 5): 10%
- % inhibition Apo pol 5' (DRC-2, 5', concentration 10): 23%
- % inhibition Apo pol 5' (DRC-2, 5', concentration 20): 31%
- % inhibition Apo pol 5' (DRC-2, 5', concentration 40): 47%
- % inhibition Apo pol 5' (DRC-2, 5', concentration 80): 58%
- % inhibition Apol 40' (DRC-2, 40', concentration 2.5): 5%
- % inhibition Apol 40' (DRC-2, 40', concentration 5): 7%
- % inhibition Apol 40' (DRC-2, 40', concentration 10): 19%
- % inhibition Apol 40' (DRC-2, 40', concentration 20): 27%
- % inhibition Apol 40' (DRC-2, 40', concentration 40): 48%
- % inhibition Apol 40' (DRC-2, 40', concentration 80): 64%
- % inhibition ApPOL 90' (DRC-2, 90', concentration 2.5): 2.82%
- % inhibition ApPOL 90' (DRC-2, 90', concentration 5): 2.82%
- % inhibition ApPOL 90' (DRC-2, 90', concentration 10): 15%
- % inhibition ApPOL 90' (DRC-2, 90', concentration 20): 22%
- % inhibition ApPOL 90' (DRC-2, 90', concentration 40): 44%
- % inhibition ApPOL 90' (DRC-2, 90', concentration 80): 62%
- % inhibition apPOL 180' (DRC-2, 180', concentration 2.5): -3.39%
- % inhibition apPOL 180' (DRC-2, 180', concentration 5): -3.25%
- % inhibition apPOL 180' (DRC-2, 180', concentration 10): 5%
- % inhibition apPOL 180' (DRC-2, 180', concentration 20): 12%
- % inhibition apPOL 180' (DRC-2, 180', concentration 40): 32%
- % inhibition apPOL 180' (DRC-2, 180', concentration 80): 55%
- % inhibition Apol 40' (conc 2.5 (unit not given); 40'; DRC-2): 5%
- % inhibition ApPOL 90' (conc 2.5 (unit not given); 90'; DRC-2): 2.82%
- % inhibition ApPOL 90' (conc 5 (unit not given); 90'; DRC-2): 2.82%
- % inhibition apPOL 180' (conc 10 (unit not given); 180'; DRC-2): 5%
- DNA Pol (primary screen hit value, DNA Pol (186 hits); 90 min, 10 µM): 82

SMILES: COc1ccc(NC(=O)Cn2ccc3c(=O)[nH]ccc32)cc1Cl [Molecule 10, COc1ccc(cc1Cl)NC(=O)Cn1ccc2c1cc[nH]c2=O]
- % inhibition Apo pol 10' (DRC-1; 10'; concentration 2.5): 12.1098%
- % inhibition Apo pol 10' (DRC-1; 10'; concentration 5): 41.0198%
- % inhibition Apo pol 10' (DRC-1; 10'; concentration 10): 64.5653%
- % inhibition Apo pol 10' (DRC-1; 10'; concentration 20): 78.092%
- % inhibition Apo pol 10' (DRC-1; 10'; concentration 40): 83.862%
- % inhibition Apo pol 10' (DRC-1; 10'; concentration 80): 74.6013%
- % inhibition Apol 90' (DRC-1; 90'; concentration 2.5): 1.658%
- % inhibition Apol 90' (DRC-1; 90'; concentration 5): 26.4531%
- % inhibition Apol 90' (DRC-1; 90'; concentration 10): 48.8726%
- % inhibition Apol 90' (DRC-1; 90'; concentration 20): 69.5261%
- % inhibition Apol 90' (DRC-1; 90'; concentration 40): 86.3942%
- % inhibition Apol 90' (DRC-1; 90'; concentration 80): 83.0123%
- % inhibition apPOL 180' (DRC-1; 180'; concentration 2.5): -4.328%
- % inhibition apPOL 180' (DRC-1; 180'; concentration 5): 12.6648%
- % inhibition apPOL 180' (DRC-1; 180'; concentration 10): 30.7094%
- % inhibition apPOL 180' (DRC-1; 180'; concentration 20): 56.2759%
- % inhibition apPOL 180' (DRC-1; 180'; concentration 40): 85.5137%
- % inhibition apPOL 180' (DRC-1; 180'; concentration 80): 84.9384%
- % inhibition Apo pol 5' (DRC-2; 5'; concentration 2.5): 22%
- % inhibition Apo pol 5' (DRC-2; 5'; concentration 5): 37%
- % inhibition Apo pol 5' (DRC-2; 5'; concentration 10): 48%
- % inhibition Apo pol 5' (DRC-2; 5'; concentration 20): 44%
- % inhibition Apo pol 5' (DRC-2; 5'; concentration 40): 37%
- % inhibition Apo pol 5' (DRC-2; 5'; concentration 80): 19%
- % inhibition Apol 40' (DRC-2; 40'; concentration 2.5): 23%
- % inhibition Apol 40' (DRC-2; 40'; concentration 5): 47%
- % inhibition Apol 40' (DRC-2; 40'; concentration 10): 64%
- % inhibition Apol 40' (DRC-2; 40'; concentration 20): 65%
- % inhibition Apol 40' (DRC-2; 40'; concentration 40): 62%
- % inhibition Apol 40' (DRC-2; 40'; concentration 80): 51%
- % inhibition ApPOL 90' (DRC-2; 90'; concentration 2.5): 20%
- % inhibition ApPOL 90' (DRC-2; 90'; concentration 5): 45%
- % inhibition ApPOL 90' (DRC-2; 90'; concentration 10): 66%
- % inhibition ApPOL 90' (DRC-2; 90'; concentration 20): 69%
- % inhibition ApPOL 90' (DRC-2; 90'; concentration 40): 68%
- % inhibition ApPOL 90' (DRC-2; 90'; concentration 80): 59%
- % inhibition apPOL 180' (DRC-2; 180'; concentration 2.5): 8%
- % inhibition apPOL 180' (DRC-2; 180'; concentration 5): 34%
- % inhibition apPOL 180' (DRC-2; 180'; concentration 10): 62%
- % inhibition apPOL 180' (DRC-2; 180'; concentration 20): 70%
- % inhibition apPOL 180' (DRC-2; 180'; concentration 40): 73%
- % inhibition apPOL 180' (DRC-2; 180'; concentration 80): 67%
- % inhibition Apo pol 5' (conc. 5; 5'; DRC-2): 37%
- % inhibition apPOL 180' (conc. 10; 180'; DRC-2): 62%
- % inhibition Apo pol 5' (conc. 40; 5'; DRC-2): 37%
- % inhibition Apol 40' (conc. 40; 40'; DRC-2): 62%
- DNA Pol (primary screen value by plate and well; 90 min, 10 µM): 78
- DNA Pol (primary screen value of the 186 hits; unit not given; 90 min, 10 µM): 78

SMILES: Cc1ccc(C)c(CSc2nc(C3CCCCC3)c(C#N)c(=O)[nH]2)c1 [Molecule 6]
- IC50 [1]: 6.42 µM
